Reference: PMC8132114 (ACS combinatorial science, 2019)
*1 amine or outer side, *2 acyl side, *3 side chain or, on linkers, in order; H or OH if unused. Where a SMILES comes first, the peptide text is derived from it. [ ]: non-standard residue; d: D form. The star is where a group is joined. X1 = O=C([C@H](CCON=Cc1c(Cl)cncc1Cl)N[*:1])[*:2]; Biotin = O=C1N[C@H]2[C@H](CS[C@H]2CCCCC(=O)*)N1; pY = N[C@@H](Cc1ccc(OP(=O)(O)O)cc1)C(=O)O; Ahx = NCCCCCC(=O)O

Biological target: VH1 C110S
Format: binding, Variola major
Settings: pH 6.2

CC(C)[C@H](NC(=O)CCCCCNC(=O)CCCC[C@@H]1SC[C@@H]2NC(=O)N[C@@H]21)C(=O)N[C@@H](CC(=O)O)C(=O)N[C@@H](C)C(=O)N[C@@H](CC(=O)O)C(=O)N[C@@H](CCC(=O)O)C(=O)N[C@@H](Cc1ccc(OP(=O)(O)O)cc1)C(=O)N[C@@H](CCON=Cc1c(Cl)cncc1Cl)C(N)=O [Peptide 6f-w202] ({Biotin-Ahx}-VDADE[pY][X1]-NH2)
Kd: 0.073 ± 0.027 µM
